We go through six compounds from patent US12576129B2, “Anthelmintic compositions and methods” (priority 2016, dated 2026).

The test system of assay [1] is Ancylostoma ceylanicum hookworms. The note with it: cited from earlier work; for % Parasite reduction: A. ceylanicum infections in hamsters; for reduction of A. ceylanicum burdens: hamsters.
The subject of assay [2] is BaCC. Description: Minimum inhibitory concentration of terpenes against BaCC (broth microdilution). The note with it: Bacillus thuringiensis; 24 h at 30° C. in LB; no absorbance increase; read-out: MIC μg/mL (100). It counts as cell-based. The method, then:
Three terpenes were tested against BaCC including: carvacrol, geraniol and farnesol, by using the broth microdilution method as described in Agaisse and Lereclus, J. Bacteriol. 176, 4734-4741, 1994 and Agaisse and Lereclus, Mol. Microbiol. 13, 97-107, 1994 with some modifications. Briefly, BaCC from a single colony was grown in 5 mL of LB medium supplemented with 10 μg/mL erythromycin+200 μg/mL kanamycin overnight (O.D. (600) of 4.8, 2.3×10^7 CFU/mL). Terpene solutions were prepared at 1 mg/mL in LB. One hundred μL of two-fold serial dilutions of each terpene in LB were prepared in 96-well microtiter plates over the range of 1000 to 3.9 μg/mL in triplicate. LB without terpenes was used as a negative control. BaCC culture was diluted 100 times, and 100 μL of BaCC culture was added to the wells. Absorbance at 600 nm was recorded before and after the incubation to monitor bacterial growth. The MICs were determined after incubation for 24 h at 30° C. without shaking.
On the technique in general: Broth dilution looks for growth in wells or tubes with falling amounts of substance.

In assay [3] the test system is BaCC. Kind of assay: Time to kill: CFU/mL of BaCC after terpene treatment. In kind it is cell-based, Bacillus thuringiensis. The method, then: In order to determine which terpene kills BaCC in the shortest amount of time, we incubated 5 mL of BaCC culture with three terpenes at 1 mg/mL at 4° C. for 1, 2, 3 and 5 hours. No terpene control and no bacteria controls were carried out simultaneously. After incubation with terpenes, samples were centrifuged and the pellets were washed with 5 mL of 1M NaCl once and 5 mL of sterile distilled water twice in order to remove the terpenes. The pellets were re-suspended in the original volume and plated on LB agar with kanamycin and erythromycin. Plates were incubated overnight at 30° C.; the next day, the number of colonies on the plates were enumerated and colony forming units (CFU)/mL calculated.
To assess terpene killing at shorter time points, BaCC culture was grown in 3× LB for 48 h as described above and 60 ml of cultures were aliquoted in sterile tubes. Carvacrol and geraniol were added to the final concentration of 1 mg/mL, and the tubes were placed on a rotator at 4° C. for 15 minutes. The negative control was prepared using sterile water instead of terpenes. At the end of the incubation period, the tubes were centrifuged at 2000× g for 10 minutes and pellets washed with 60 ml of 1 M NaCl once and washed with 60 mL of sterile distilled water twice. Pellets were re-suspended in 1.2 mL of sterile distilled water to concentrate the culture 50 times. Concentrated terpene treated and control samples were plated on LB agar plates containing kanamycin and erythromycin and incubated overnight at 30° C. The number of colonies were counted the next day and CFU/mL calculated for each time point.

Structures are written as SMILES. Converted amounts (≈) assume the structure as drawn. Like-named read-outs stand apart in the source and are kept apart here.

On to `c1ccc([C@H]2CN3CCSC3=N2)cc1` [Levamisole, levamisole], for which the “% Parasite reduction” value in assay [1] (10 mg/kg) is listed as 60%. The “reduction of A. ceylanicum burdens” value in assay [1] (10-mg/kg dose) was 60%.

In the case of `CN1CCCN=C1/C=C/c1cccs1` [Pyrantel, pyrantel], the “% Parasite reduction” value in assay [1] (10 mg/kg) is listed as 87%. The “reduction of A. ceylanicum burdens” value in assay [1] (10-mg/kg dose) is listed as 87%.

For the compound `C/C(=N/c1ccc(/N=C/c2ccc(/C=N/c3ccc(/N=C(/C)N(C)C)cc3)cc2)cc1)N(C)C` [Tribendimidine, tribendimidine], in assay [1] (10 mg/kg), the “% Parasite reduction” value was 75%. In addition, in assay [1] (10-mg/kg dose), the “reduction of A. ceylanicum burdens” value is listed as 75%.

`CCCSc1ccc2nc(NC(=O)OC)[nH]c2c1` [Albendazole, albendazole]: the “% Parasite reduction” value in assay [1] (1.25 mg/kg) is reported as 88%. The “reduction of A. ceylanicum burdens” value in assay [1] (1.25-mg/kg (4.7 μmol/kg) dose) is 88%. For the same compound, the “dose required to clear the same infection” value in assay [1] (in vivo) is 5 mg/kg.

For the compound `CC(C)=CCC/C(C)=C/CO` [Geraniol, geraniol], the MIC in assay [2] is 500 µg/mL (≈ 3240 µM). The “CFU/ml (1 mg/mL terpene treatment for time indicated)” value in assay [3] (15 min at 4° C., culture concentrated 50 times (50X conc.) before plating) is recorded as 100 CFU/ml; in assay [3] (1 h at 4° C.), 0 CFU/ml; in assay [3] (3 h at 4° C.) it was 0 CFU/ml; in assay [3] (5 h at 4° C.) it was 0 CFU/ml; in assay [3] (time 0) it was 2.31 × 10^7 CFU/ml.

For `CC(C)=CCCC(C)=CCCC(C)=CCO` [Farnesol, farnesol], the MIC in assay [2] came to 500 µg/mL (≈ 2250 µM). The “CFU/ml (1 mg/mL terpene treatment for time indicated)” value was 1.00 × 10^7 CFU/ml in assay [3] (1 h at 4° C.), 1.30 × 10^5 CFU/ml in assay [3] (3 h at 4° C.), 0 CFU/ml in assay [3] (5 h at 4° C.) and 2.31 × 10^7 CFU/ml in assay [3] (time 0).
